From patent EP4129284B1, “SERTACONAZOL FOR PROVIDING A SPORISTATIC AND/OR SPORICIDAL EFFECT” (Dr. Pfleger Arzneimittel GmbH, priority 2021, dated 2023)

Test system: full skin models
Type: cell-based, human
Description: Additionally, the influence on the cell viability and the release of lactate dehydrogenase (LDH) was examined over the incubation time. Disruptions of the cell membranes can be measured by the release of the cytosolic enzyme LDH and be evaluated as a marker for cellular necrosis. As the biocompatibility of the material is determined by further cellular and molecular factors, the analysis of the cellular interleukin release allows the conclusion on e.g. pro-inflammatory effects of the substances, which would not be possible to be detected by sole cytotoxicity. Such interleukins are interleukins 1α, 6 or 8, which are involved in coordinating the cellular proliferation, cell migration and possible inflammatory processes. Such a method is described in, for example, Wiegand C, Hipler UC. Evaluation of biocompatibility and cytotoxicity using keratinocyte and fibroblast cultures. Skin Pharmacol Physiol 2009; 22:74-82; Wiegand C, Winter D, Hipler UC. Molecular-weight-dependent toxic effects of chitosans on the human keratinocyte cell line HaCaT. Skin Pharmacol Physiol. 2010;23(3):164-70.
The spore suspensions and the solutions of sertaconazol, ciclopiroxolamin and terbinafin were prepared as in Example 1, wherein the respective test concentrations were obtained by diluting these solutions in ultrapure water (WFI; Fresenius Kabi) instead of SGB (Merck). Full skin models were produced as previously described [Reddersen K, Wiegand C, Elsner P, Hipler UC. Three-dimensional human skin model infected with Staphylococcus aureus as a tool for evaluation of bioactivity and biocompatibility of antiseptics. Int J Antimicrob Agents. 2019; 54(3):283-291; Wiegand C, Fink S, Beier O, Horn K, Pfuch A, Schimanski A, Grünler B, Hipler UC, Elsner P. Dose- and Time-Dependent Cellular Effects of Cold Atmospheric Pressure Plasma Evaluated in 3D Skin Models. Skin Pharmacol Physiol. 2016;29(5):257-265].Particularly, normal human dermal fibroblasts (NHDF; Lot 1060702.1, Promocell) and normal human epidermal keratinocytes (NHEK; Lot 9100102, Promocell) were used. Fibroblasts were cultivated in Dulbecco's modified eagle medium (DMEM; Lot MC09049P, Amimed), with 2% foetal calf serum (Lot P160509; PAN), 5 ng/mL hFGF (Lot 0329586; novoprotein) and 5 µg/ml Insulin (Lot H07443P, AMIMED) at 37°C and a 5% CO2 atmosphere. Keratinocytes were cultivated in keratinocyte medium (KBM, Lot 446M063, Promocell) at 37°C and a 5% CO2 atmosphere. The cultivation was performed over 7 days in 75 cm^2 cell culture flasks (Greiner Bio-One). The cells were subsequently detached with Trypsin-EDTA (Lot 2091326; Gibco) and dissolved in the respective medium. For producing the dermis equivalent, fibroblasts were cultivated in 12-well inserts (Greiner bio-one) with DMEM (Lot MC09049P, Amimed) + 10% foetal calf serum (Lot P160509, PAN) + 1% Gentamycin (Lot 2027100, Gibco) + 150 µg/ml ascorbic acid (Lot BCBS1081V, Sigma) for 3 weeks at […] and 5 % CO2. The medium was changed all 2-3 days. Before seeding the keratinocytes for producing the […], the medium surrounding the insert was completely removed and the dermis upper layer was coated with fibronectin (50 µg/mL; Lot 435P078, Promocell). After 30 min of incubation of the dermis equivalent with fibronectin, the seeding of the keratinocytes was performed with 2 × 10^5 cells / insert in KBM (Lot 446M063, Promocell) + 5% FKS (Lot P160509, PAN) + 1% Gentamycin (Lot 2027100, Gibco). Subsequently, the skin models were incubated for 45 min in the incubator before the models were flooded with KBM + 5% FKS + 1% Gentamycin. The skin models were cultivated for 7 days by submersion in the medium with decreasing foetal calf serum concentration (5 %, 2 %, 0 %). The medium was changed all 2-3 days. After the cultivation by submersion, the skin models were further cultivated for 12 days at the air-medium interface (airlift cultivation). […]

CCCCCCCCCCCCOS(=O)(=O)[O-].[Na+] [SDS]
cell viability: approximately 20%
